Test results from PubChem BioAssay AID248 (DTP/NCI, 2004).
Values joined by “and” are separate entries in the source; they are usually repeats but may differ in a detail not shown here. Identical values can stand only once. Toxic doses and inconclusive results are not listed. Rule as the data show it: active = T/C of 150% or more; inactive = T/C below 125%.

Tested on: L1210 leukemia ip in BDF1 mice, survival T/C
Assay: NCI In Vivo Anticancer Drug Screen. Data for tumor model L1210 Leukemia (intraperitoneal) in B6D2F1 (BDF1) mice
Settings: endpoint: mean survival time, higher = longer survival
How it was run: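 Transplantable tumor model; survival measured in treated vs vehicle control mice. Value = treated/control.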

[1] = dose: 75.0 mg/kg/injection, schedule: Q01DX001 (ip), vehicle: saline
[2] = dose: 150.0 mg/kg/injection, schedule: Q01DX001 (ip), vehicle: saline
[3] = dose: 100.0 mg/kg/injection, schedule: Q04DX003 (ip), vehicle: saline with Tween-80
[4] = dose: 200.0 mg/kg/injection, schedule: Q04DX003 (ip), vehicle: saline with Tween-80
[5] = dose: 400.0 mg/kg/injection, schedule: Q04DX003 (ip), vehicle: saline with Tween-80
[6] = dose: 100.0 mg/kg/injection, schedule: Q04DX002 (ip), vehicle: Klucel (hydroxypropylcellulose) (HPC)
[7] = dose: 200.0 mg/kg/injection, schedule: Q04DX002 (ip), vehicle: Klucel (hydroxypropylcellulose) (HPC)
[8] = dose: 400.0 mg/kg/injection, schedule: Q04DX002 (ip), vehicle: Klucel (hydroxypropylcellulose) (HPC)
[9] = dose: 100.0 mg/kg/injection, schedule: Q01DX009 (ip), vehicle: Klucel (hydroxypropylcellulose) (HPC)
[10] = dose: 100.0 mg/kg/injection, schedule: Q04DX003 (ip), vehicle: Klucel (hydroxypropylcellulose) (HPC)
[11] = dose: 200.0 mg/kg/injection, schedule: Q01DX009 (ip), vehicle: Klucel (hydroxypropylcellulose) (HPC)
[12] = dose: 200.0 mg/kg/injection, schedule: Q04DX003 (ip), vehicle: Klucel (hydroxypropylcellulose) (HPC)
[13] = dose: 400.0 mg/kg/injection, schedule: Q01DX009 (ip), vehicle: Klucel (hydroxypropylcellulose) (HPC)
[14] = dose: 400.0 mg/kg/injection, schedule: Q04DX003 (ip), vehicle: Klucel (hydroxypropylcellulose) (HPC)
[15] = dose: 100.0 mg/kg/injection, schedule: Q01DX009 (ip), vehicle: saline with Tween-80
[16] = dose: 200.0 mg/kg/injection, schedule: Q01DX009 (ip), vehicle: saline with Tween-80
[17] = dose: 400.0 mg/kg/injection, schedule: Q01DX009 (ip), vehicle: saline with Tween-80
[18] = dose: 100.0 mg/kg/injection, schedule: Q04DX002 (ip), vehicle: saline with Tween-80
[19] = dose: 200.0 mg/kg/injection, schedule: Q04DX002 (ip), vehicle: saline with Tween-80
[20] = dose: 400.0 mg/kg/injection, schedule: Q04DX002 (ip), vehicle: saline with Tween-80
[21] = dose: 100.0 mg/kg/injection, schedule: Q01DX001 (ip), vehicle: saline
[22] = dose: 200.0 mg/kg/injection, schedule: Q01DX001 (ip), vehicle: saline

Measured: T/C

O=C(O)c1cc(C(F)(F)F)nc2c1ccc1ccccc12
inactive: [1] 98 % of control | [2] 98 % of control

c1ccc(-c2cc3c(cc2-c2ccccc2)C(c2ccccc2)(c2ccccc2)c2nc4ccccc4nc2-3)cc1
inactive: [3] 95 % of control | [4] 93 % of control | [5] 91 % of control

CCc1nc(NN)nc(CC)c1-c1ccccc1O
inactive: [6] 105 % of control | [7] 91 % of control

CCCC(Br)C(=O)OCC (stereo not drawn)
inactive: [3] 101 % of control | [4] 96 % of control

O=C(CC1(O)C(=O)Nc2ccc(Br)cc21)c1ccc2c(c1)OCO2 (stereo not drawn)
inactive: [6] 92 % of control | [7] 104 % of control | [8] 95 % of control

Nc1ccc(CCc2ccc(N)cc2[N+](=O)[O-])c([N+](=O)[O-])c1
inactive: [9] 101 % of control | [10] 96 % of control | [11] 101 % of control | [12] 109 % of control | [13] 92 % of control | [14] 90 % of control

CCCCn1c(=S)sc2ccccc21
inactive: [6] 94 % of control | [7] 109 % of control | [8] 88 % of control

CCOC(=O)C(C(=O)OCC)C(C)(C)Cc1ccccc1
inactive: [9] 92 % of control | [11] 100 % of control | [12] 96 % of control | [13] 93 % of control | [14] 93 % of control

COC(=O)c1nc(N)n[nH]1
inactive: dose: 100.0 mg/kg/injection, schedule: Q01DX001 (ip), vehicle: other 110 % of control | [15] 106 % of control | dose: 100.0 mg/kg/injection, schedule: Q04DX003 (ip), vehicle: other 102 % of control | dose: 200.0 mg/kg/injection, schedule: Q01DX001 (ip), vehicle: other 95 % of control | [16] 94 % of control | dose: 200.0 mg/kg/injection, schedule: Q04DX003 (ip), vehicle: other 105 % of control | dose: 400.0 mg/kg/injection, schedule: Q01DX001 (ip), vehicle: other 97 % of control | [17] 95 % of control | dose: 400.0 mg/kg/injection, schedule: Q04DX003 (ip), vehicle: other 102 % of control

CC/C=C/C1(C(C)C)C(=O)NC(=O)NC1=O
inactive: [1] 103 % of control | [2] 105 % of control

C=CCN(CCN(CC)CC)C(=O)C(O)(c1ccccc1)c1ccccc1
inactive: [18] 93 % of control | [19] 93 % of control | [20] 95 % of control

COC(OC)C1=CC(=O)NC(NC(=O)C(Cl)Cl)N1 (stereo not drawn)
inactive: dose: 50.0 mg/kg/injection, schedule: Q01DX001 (ip), vehicle: saline 92 % of control | [21] 98 % of control | [22] 95 % of control

O=[N+]([O-])/C=C/c1ccc(Br)cc1
inactive: [1] 95 % of control

Cc1ccc(S(=O)(=O)[N-][n+]2ccccc2)cc1
inactive: [9] 93 % of control | [11] 93 % of control

N#CC(CN1CCOCC1)[N+](=O)[O-] (stereo not drawn)
inactive: [3] 98 % of control | [4] 93 % of control | [5] 95 % of control

NCCc1cc2c3c(c1)CCCN3CCC2
inactive: dose: 0.78 mg/kg/injection, schedule: Q01DX009 (ip), vehicle: saline 95 % of control | dose: 1.56 mg/kg/injection, schedule: Q01DX009 (ip), vehicle: saline 102 % of control | dose: 3.12 mg/kg/injection, schedule: Q01DX009 (ip), vehicle: saline 91 % of control | dose: 6.25 mg/kg/injection, schedule: Q01DX009 (ip), vehicle: saline 97 % of control | dose: 12.5 mg/kg/injection, schedule: Q01DX001 (ip), vehicle: saline 100 % of control | dose: 25.0 mg/kg/injection, schedule: Q01DX001 (ip), vehicle: saline 94 % of control

CCN(CC)CCCC(C)NC(=O)c1ccc(Cl)nc1 (stereo not drawn)
inactive: dose: 50.0 mg/kg/injection, schedule: Q01DX009 (ip), vehicle: saline with Tween-80 105 % of control | [15] 103 % of control | [16] 95 % of control

CSc1nnc2scnn12
inactive: dose: 50.0 mg/kg/injection, schedule: Q01DX001 (ip), vehicle: carboxymethylcellulose (CMC) 104 % of control | dose: 100.0 mg/kg/injection, schedule: Q01DX001 (ip), vehicle: carboxymethylcellulose (CMC) 104 % of control | dose: 200.0 mg/kg/injection, schedule: Q01DX001 (ip), vehicle: carboxymethylcellulose (CMC) 101 % of control

O=[N+]([O-])c1cccc(OCCCCOc2ccc(S(=O)(=O)F)cc2)c1
inactive: dose: 50.0 mg/kg/injection, schedule: Q01DX001 (ip), vehicle: Klucel (hydroxypropylcellulose) (HPC) 92 % of control | dose: 100.0 mg/kg/injection, schedule: Q01DX001 (ip), vehicle: Klucel (hydroxypropylcellulose) (HPC) 94 % of control | dose: 200.0 mg/kg/injection, schedule: Q01DX001 (ip), vehicle: Klucel (hydroxypropylcellulose) (HPC) 90 % of control

CCCCCCCCCCCC(=O)Nc1ccc2ccccc2c1
inactive: [15] 93 % of control and 97 % of control | [18] 105 % of control and 107 % of control | [3] 105 % of control | [16] 107 % of control and 88 % of control | [19] 93 % of control and 89 % of control | [4] 94 % of control | [17] 96 % of control and 90 % of control | [20] 94 % of control and 117 % of control | [5] 95 % of control

O=C1NC(=O)C2C(c3ccccc3)=NOC2N1 (stereo not drawn)
inactive: [9] 103 % of control | [10] 97 % of control | [11] 103 % of control | [12] 90 % of control | [13] 98 % of control | [14] 97 % of control

O=C1OC2CCCCC2OC1=O (stereo not drawn)
inactive: [21] 101 % of control | [22] 101 % of control

C1CCC2OCOCC2C1 (stereo not drawn)
inactive: [18] 93 % of control | [19] 90 % of control | [20] 93 % of control

O=C(Nc1ccc([N+](=O)[O-])cc1Cl)OCCCl
inactive: dose: 100.0 mg/kg/injection, schedule: Q01DX001 (ip), vehicle: saline with Tween-80 94 % of control | [15] 98 % of control | [18] 97 % of control | [3] 96 % of control | dose: 200.0 mg/kg/injection, schedule: Q01DX001 (ip), vehicle: saline with Tween-80 98 % of control | [16] 87 % of control and 89 % of control | [19] 97 % of control | [4] 86 % of control | dose: 400.0 mg/kg/injection, schedule: Q01DX001 (ip), vehicle: saline with Tween-80 87 % of control | [17] 91 % of control | [20] 94 % of control

COC(=O)c1ccc[n+](CCc2ccc(OC)c(OC)c2)c1
inactive: [1] 111 % of control

O=c1c2ccccc2[nH]c2cc(Cl)ccc12
inactive: dose: 50.0 mg/kg/injection, schedule: Q01DX Z (ip), vehicle: carboxymethylcellulose (CMC) 109 % of control | dose: 100.0 mg/kg/injection, schedule: Q01DX Z (ip), vehicle: carboxymethylcellulose (CMC) 103 % of control | dose: 200.0 mg/kg/injection, schedule: Q01DX Z (ip), vehicle: carboxymethylcellulose (CMC) 97 % of control | dose: 400.0 mg/kg/injection, schedule: Q01DX Z (ip), vehicle: carboxymethylcellulose (CMC) 115 % of control

CCCCCCCCCCCCCCOc1ccc2ccccc2c1
inactive: [10] 94 % of control | [12] 96 % of control | [14] 91 % of control
